These results are taken from patent US20080213780A1, “MULTI-COLOR TIME RESOLVED FLUOROPHORES BASED ON MACROCYCLIC LANTHANIDE COMPLEXES” (Lumiphore, Inc., priority 2007, published 2008).

Where “and” joins values, the source holds several entries; their conditions need not be identical. Identical values can stand only once.

Series [1] is described as follows: Fluorescence lifetime decay (time-resolved) of the donor-acceptor conjugate. Conditions: for long lifetime: excitation of BH22IAM and energy transfer to fluorescein: terbium complex, excited at BH22IAM absorption (~340 nm), fluorescein emission 520 nm. Format: physicochemical. An excerpt: A short lifetime corresponding to the direct excitation of fluorescein (3.92 nsec) and a long lifetime corresponding to excitation of BH22IAM and energy transfer to fluorescein (524 nsec).
In another exemplary embodiment, the compounds of the invention emit light at an emission wavelength of the fluorophore attached to the metal chelate through the acceptor-linker. […] For example, compound 3, when coordinated to terbium and excited at a BH22IAM absorption wavelength (˜340 nm), the metal chelate emits at 520 nm, the characteristic wavelength of fluorescein with a lifetime of 524 nsec. The new lifetime is over 100-fold longer than the lifetime for a fluorescein solution that is directly excited (<5 nsec).
The 524 nsec of the conjugated fluorescein is acquired through direct excitation of the Tb-BH22IAM complex at 340 nm, which normally has a very long lifetime (2.6 msec), followed by energy transfer to the conjugated fluorescein and emission at the characteristic wavelength for fluorescein (520 nm).

A short description of series [2]: Steady-state absorption and emission spectra. The conditions noted are these: for emission wavelength / emission maxima: excited at BH22IAM absorption wavelength (~340 nm). In kind it is physicochemical. From the text:
FIG. 8 is a steady-state absorption spectrum of FITC-BH22IAM conjugate.

On to `O=C(O)c1cc(NC(=S)NCCCCC2CN3CCNC(=O)c4cccc(c4O)C(=O)NCCN(CCNC(=O)c4cccc(c4O)C(=O)N2)CCN2CCNC(=O)c4cccc(c4O)C(=O)NCCN(CCNC(=O)c4cccc(c4O)C(=O)NCC2)CC3)ccc1-c1c2ccc(=O)cc-2oc2cc(O)ccc12` (stereo not shown) [4a], for which the “long lifetime: excitation of BH22IAM and energy transfer to fluorescein” value in series [1] was 520 nsec and 524 nsec. In series [2], the “absorption maximum (BH22IAM)” value was found to be 340 nm; the “absorption maximum (fluorescein)” value stood at 490 nm; the “emission wavelength / emission maxima” value is 519 nm and 520 nm.
With `O=C(O)c1cc(NC(=S)NCCCCC2CN3CCNC(=O)c4cccc(c4O)C(=O)NCCN(CCNC(=O)c4cccc(c4O)C(=O)N2)CCN2CCNC(=O)c4cccc(c4O)C(=O)NCCN(CCNC(=O)c4cccc(c4O)C(=O)NCC2)CC3)ccc1-c1c2ccc(=O)cc-2oc2cc(O)ccc12` (stereo not shown) [compound 3], in series [1] (524 nsec versus <5 nsec), the “lifetime relative to a directly excited fluorescein solution” value is “over 100 fold”. The “long lifetime: excitation of BH22IAM and energy transfer to fluorescein” value in series [1] was 524 nsec. In series [2], the “emission wavelength / emission maxima” value is 520 nm.
